Consider 33 compounds from patent US20100029615A1, “BENZIMIDAZOLE DERIVATIVES” (priority 2006, published 2010).

Broadly, the inhibition is the relative decrease from the control value, in per cent.

Structures are written as SMILES. Structures can show the parent of a compound that is named as a salt.

The assay has as its target T1, SMO (Mus musculus, UniProt P56726).
T1 construct: endogenous in cells; host or cells: C3H10T1/2 (ATCC #CCL-226)
The assay can be described thus: Smoothened (SMO)/Sonic Hedgehog (SHh) Transient Transcriptional Activation Assay (Gli-luciferase reporter in C3H10T1/2 cells). Type of assay: cell-based, murine. The following applies: SHh 250 ng/ml, 20 hrs; for inhibition at 2 µM: C3H 10T1/2, 2 μM test compound, read-out: SMO CELL % INHIBITION @ 2 μM. In a few lines: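 C3H10T1/2 cells transiently transfected with a 10× murine Gli-responsive firefly luciferase reporter plus pEGFP, serum-starved 20 h in 0.5% calf serum, then treated with compounds (2 uM–2 nM final) and 250 ng/ml recombinant human SHh for 20 h at 37 °C. Read-out: Dual-Glo luminescence.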
(A reporter such as luciferase makes a cellular process visible.)

T1 sequence (P56726 33-793): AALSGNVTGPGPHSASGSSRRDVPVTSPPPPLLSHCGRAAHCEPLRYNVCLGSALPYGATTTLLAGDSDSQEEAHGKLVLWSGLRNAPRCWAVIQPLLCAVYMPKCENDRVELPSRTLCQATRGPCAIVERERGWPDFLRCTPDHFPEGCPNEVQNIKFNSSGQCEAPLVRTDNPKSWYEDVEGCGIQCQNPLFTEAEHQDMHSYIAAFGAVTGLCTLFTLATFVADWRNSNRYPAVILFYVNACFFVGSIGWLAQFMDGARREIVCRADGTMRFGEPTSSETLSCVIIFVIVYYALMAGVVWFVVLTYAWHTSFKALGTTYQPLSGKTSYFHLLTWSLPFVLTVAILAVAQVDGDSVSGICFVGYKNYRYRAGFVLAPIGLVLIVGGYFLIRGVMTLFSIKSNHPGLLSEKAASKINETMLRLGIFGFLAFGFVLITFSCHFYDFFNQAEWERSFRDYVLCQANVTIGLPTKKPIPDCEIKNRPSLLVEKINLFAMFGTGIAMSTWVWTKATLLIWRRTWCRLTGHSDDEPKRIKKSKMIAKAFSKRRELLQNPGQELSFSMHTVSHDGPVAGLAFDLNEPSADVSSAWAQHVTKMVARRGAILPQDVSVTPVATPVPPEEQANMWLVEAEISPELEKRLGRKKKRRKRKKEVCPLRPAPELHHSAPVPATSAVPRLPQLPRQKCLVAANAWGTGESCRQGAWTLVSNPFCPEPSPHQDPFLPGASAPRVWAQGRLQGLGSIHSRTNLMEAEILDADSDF

In the case of `COc1cc(OC)cc(C(=O)N[C@@H]2CCC[C@H](c3nc4ccccc4[nH]3)C2)c1` [Example 166, N-[(1R,3S)-3-(1H-benzimidazol-2-yl)cyclohexyl]-3,5-dimethoxybenz-amide HCl], the inhibition at 2 µM worked out at 109%.
In the case of `COc1cc(OC)cc(C(=O)N[C@@H]2CCC[C@H](c3nc4ccccc4n3C)C2)c1` [Example 167, 3,5-dimethoxy-N[(1R,3S)-3-(1-methyl-1H-benzimidazol-2-yl)cyclohexyl] benzamide HCl], the inhibition at 2 µM turned out to be 101%.
As to `Cc1ccc2nc([C@H]3CCC[C@@H](NC(=O)c4ccc5c(c4)OCCO5)C3)[nH]c2c1` [Example 168, N-[(1R,3S)-3-(6-methyl-1H-benzimidazol-2-yl)cyclohexyl]-2,3-dihydro-1,4-benzodioxine-6-carboxamide HCl], the inhibition at 2 µM was found to be 106%.
In the case of `O=C(N[C@@H]1CCC[C@H](c2nc3ccccc3[nH]2)C1)c1cnc(O)c(Cl)c1` [Example 169, N-[(1R,3S)-3-(1H-benzimidazol-2-yl)cyclohexyl]-5-chloro-6-hydroxynicotin-amide HCl], the inhibition at 2 µM is 93%.
For `COc1cc(OC)cc(C(=O)N[C@@H]2CCC[C@H](c3nc4ccc(C(F)(F)F)cc4[nH]3)C2)c1` [Example 170, 3,5-dimethoxy-N-{(1R,3S)-3-[6-(trifluoromethyl)-1H-benzimidazol-2-yl]cyclohexyl} benzamide HCl], the inhibition at 2 µM stood at 110%.
Regarding `COc1cc(OC)cc(C(=O)N[C@@H]2CCC[C@H](c3nc4ccc(C(F)(F)F)cc4[nH]3)C2)c1` [Example 171, 3,5-dimethoxy-N-{(1R,3S)-3-[6-(trifluoromethyl)-1H-benzimidazol-2-yl]cyclohexyl} benzamide (+)-tartrate], under “2 μM test compound, 2 µM”, the “SMO CELL % INHIBITION @ 2 μM” value came out at 107.2%.
`N#Cc1ccc2nc([C@H]3CCC[C@@H](NC(=O)c4ccc5c(c4)OCCO5)C3)[nH]c2c1` [Example 172, N-[(1R,3S)-3-(6-cyano-1H-benzimidazol-2-yl)cyclohexyl]-2,3-dihydro-1,4-benzodioxine-6-carboxamide HCl]: the inhibition at 2 µM is 90%.
For the compound `O=C1COc2ccc(C(=O)N[C@@H]3CCC[C@H](c4nc5ccccc5[nH]4)C3)cc2N1` [Example 173, N-[(1R,3S)-3-(1H-benzimidazol-2-yl)cyclohexyl]-3-oxo-3,4-dihydro-2H-1,4-benzoxazine-6-carboxamide HCl], the inhibition at 2 µM stood at 97%.
As for `Cn1cncc1C(=O)N[C@@H]1CCC[C@H](c2nc3ccccc3[nH]2)C1` [Example 174, N-[(1R,3S)-3-(1H-benzimidazol-2-yl)cyclohexyl]-1-methyl-1H-imidazole-5-carboxamide HCl], the inhibition at 2 µM is 64%.
For the compound `Cn1c(C(=O)N[C@@H]2CCC[C@H](c3nc4ccccc4[nH]3)C2)nc2ccccc21` [Example 175, N-[(1R,3S)-3-(1H-benzimidazol-2-yl)cyclohexyl]-1-methyl-1H-benzimidazole-2-carboxamide HCl], the inhibition at 2 µM amounted to 81%.
Regarding `O=C(N[C@@H]1CCC[C@H](c2nc3ccccc3[nH]2)C1)c1nc2ccccc2[nH]1` [Example 176, N-[(1R,3S)-3-(1H-benzimidazol-2-yl)cyclohexyl]-1H-benzimidazole-2-carboxamide HCl], the inhibition at 2 µM was found to be 57%.
Take `Cc1cc(C(=O)N[C@@H]2CCC[C@H](c3nc4ccccc4[nH]3)C2)n(C)n1` [Example 177, N-[(1R,3S)-3-(1H-benzimidazol-2-yl)cyclohexyl]-1,3-dimethyl-1H-pyrazole-5-carboxamide HCl]: the inhibition at 2 µM turned out to be 73%.
As to `O=C(N[C@@H]1CCC[C@H](c2nc3ccc(Cl)cc3[nH]2)C1)c1ccc2c(c1)OCCO2` [Example 178, N-[(1R,3S)-3-(6-chloro-1H-benzimidazol-2-yl)cyclohexyl]-2,3-dihydro-1,4-benzodioxine-6-carboxamide HCl], the inhibition at 2 µM is 110%.
The same measure, in the same setting: for `O=C(N[C@H]1CCC[C@@H](c2nc3ccc(Cl)cc3[nH]2)C1)c1ccc2c(c1)OCCO2` [Example 179, N-[(1S,3R)-3-(6-chloro-1H-benzimidazol-2-yl)cyclohexyl]-2,3-dihydro-1,4-benzodioxine-6-carboxamide HCl] the value was 106%.
Consider `COc1ccc2nc([C@H]3CCC[C@@H](NC(=O)c4ccc5c(c4)OCCO5)C3)[nH]c2c1` [Example 180, N-[(1R,3S)-3-(6-methoxy-1H-benzimidazol-2-yl)cyclohexyl]-2,3-dihydro-1,4-benzodioxine-6-carboxamide HCl], for which the inhibition at 2 µM worked out at 107%.
Turning to `O=C(N[C@@H]1CCC[C@H](c2nc3ccccc3[nH]2)C1)c1cc2cc(Cl)ccc2o1` [Example 181, N-[(1R,3S)-3-(1H-benzimidazol-2-yl)cyclohexyl]-5-chloro-1-benzofuran-2-carboxamide triflouroacetate], the inhibition at 2 µM amounted to 104%.
For `O=C(N[C@@H]1CCC[C@H](c2nc3ccccc3[nH]2)C1)c1cc2ccccc2s1` [Example 182, N-[(1R,3S)-3-(1H-benzimidazol-2-yl)cyclohexyl]-1-benzothiophene-2-carboxamide triflouroacetate], the inhibition at 2 µM is 106%.
As for `Cc1ccc(C(=O)N[C@@H]2CCC[C@H](c3nc4ccccc4[nH]3)C2)c2ccccc12` [Example 183, N-[(1R,3S)-3-(1H-benzimidazol-2-yl)cyclohexyl]-4-methyl-1-naphthamide triflouroacetate], the inhibition at 2 µM is 95%.
On the same count and under the same terms, for `COc1ccc2oc(C(=O)N[C@@H]3CCC[C@H](c4nc5ccccc5[nH]4)C3)cc2c1` [Example 184, N-[(1R,3S)-3-(1H-benzimidazol-2-yl)cyclohexyl]-5-methoxy-1-benzofuran-2-carboxamide triflouroacetate] the value was 61%; for `O=C(N[C@@H]1CCC[C@H](c2nc3ccccc3[nH]2)C1)[C@@H]1COc2ccccc2O1` [Example 185, (2S)-N-[(1R,3S)-3-(1H-benzimidazol-2-yl)cyclohexyl]-2,3-dihydro-1,4-benzodioxine-2-carboxamide triflouroacetate], 81%.
Same read-out and setting: for `O=C(N[C@@H]1CCC[C@H](c2nc3ccccc3[nH]2)C1)c1ccc2c(c1)OCO2` [Example 186, N-[(1R,3S)-3-(1H-benzimidazol-2-yl)cyclohexyl]-1,3-benzodioxole-5-carboxamide triflouroacetate] the value was 59%; for `O=C(N[C@@H]1CCC[C@H](c2nc3ccccc3[nH]2)C1)c1ccc2ccccc2c1` [Example 187, N-[(1R,3S)-3-(1H-benzimidazol-2-yl)cyclohexyl]-2-naphthamide triflouroacetate], 94%; for `O=C(N[C@@H]1CCC[C@H](c2nc3ccccc3[nH]2)C1)c1cccc2ccccc12` [Example 188, N-[(1R,3S)-3-(1H-benzimidazol-2-yl)cyclohexyl]-1-naphthamide triflouroacetate], 64%.
Regarding `Cc1c(C(=O)N[C@@H]2CCC[C@H](c3nc4ccccc4[nH]3)C2)oc2ccccc12` [Example 189, N-[(1R,3S)-3-(1H-benzimidazol-2-yl)cyclohexyl]-3-methyl-1-benzofuran-2-carboxamide triflouroacetate], the inhibition at 2 µM was determined as 65%.
For `O=C(N[C@@H]1CCC[C@H](c2nc3ccccc3[nH]2)C1)c1ccc2nonc2c1` [Example 190, N-[(1R,3S)-3-(1H-benzimidazol-2-yl)cyclohexyl]-2,1,3-benzoxadiazole-5-carboxamide triflouroacetate], the inhibition at 2 µM stood at 37%.
In the case of `Cc1ccc2[nH]c(C(=O)N[C@@H]3CCC[C@H](c4nc5ccccc5[nH]4)C3)c(C)c2c1` [Example 191, N-[(1R,3S)-3-(1H-benzimidazol-2-yl)cyclohexyl]-3,5-dimethyl-1H-indole-2-carboxamide triflouroacetate], the inhibition at 2 µM is 107%.
In the case of `Cc1[nH]c2ccc(C(=O)N[C@@H]3CCC[C@H](c4nc5ccccc5[nH]4)C3)cc2c1C` [Example 192, N-[(1R,3S)-3-(1H-benzimidazol-2-yl)cyclohexyl]-2,3-dimethyl-1H-indole-5-carboxamide triflouroacetate], the inhibition at 2 µM worked out at 109%.
Still for that read-out and setting: for `O=C(N[C@@H]1CCC[C@H](c2nc3ccccc3[nH]2)C1)C1=Cc2ccccc2OC1` [Example 193, N-[(1R,3S)-3-(1H-benzimidazol-2-yl)cyclohexyl]-2H-chromene-3-carboxamide triflouroacetate] the value was 53%; for `Cc1cc(C)n2nc(C(=O)N[C@@H]3CCC[C@H](c4nc5ccccc5[nH]4)C3)cc2n1` [Example 194, N-[(1R,3S)-3-(1H-benzimidazol-2-yl)cyclohexyl]-5,7-dimethylpyrazolo-[1,5-a]pyrimidine-2-carboxamide triflouroacetate], 47%.
On to `O=C(N[C@@H]1CCC[C@H](c2nc3ccccc3[nH]2)C1)C1COc2ccccc2C1` (stereo partly drawn) [Example 195, N-[(1R,3S)-3-(1H-benzimidazol-2-yl)cyclohexyl] chromane-3-carboxamide triflouroacetate], for which the inhibition at 2 µM was 81%.
On the same count and under the same terms, next, `O=C(N[C@@H]1CCC[C@H](c2nc3ccccc3[nH]2)C1)C1COc2ccccc2O1` (stereo partly drawn) [Example 196, N-[(1R,3S)-3-(1H-benzimidazol-2-yl)cyclohexyl]-2,3-dihydro-1,4-benzodioxine-2-carboxamide triflouroacetate]: 70%.
Turning to `Cc1nc2cc(C(=O)N[C@@H]3CCC[C@H](c4nc5ccccc5[nH]4)C3)ccc2[nH]1` [Example 197, N-[(1R,3S)-3-(1H-benzimidazol-2-yl)cyclohexyl]-2-methyl-1H-benzimidazole-5-carboxamide triflouroacetate], the inhibition at 2 µM worked out at 50%.
As to `O=C(N[C@@H]1CCC[C@H](c2nc3ccccc3[nH]2)C1)c1ccc2c(c1)CCO2` [Example 198, N-[(1R,3S)-3-(1H-benzimidazol-2-yl)cyclohexyl]-2,3-dihydro-1-benzofuran-5-carboxamide triflouroacetate], the inhibition at 2 µM was 85%.
